Test results as given in patent publication US20250304563A1, “ACTIVATORS OF EFFECTOR T CELLS” (Orum Therapeutics, Inc., priority 2022, published 2025).

Tests used:
[1] = target: Cbl-b (36-427 aa truncated form, N-terminus Avi-tag) (Homo sapiens (Human), UniProt Q13191); experiment: Cbl-b binding: TR-FRET displacement of BODIPY-FL probe
Procedure, shortened: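 IC50 from loss of terbium–BODIPY-FL TR-FRET signal as compounds compete off a fluorescent Cbl-b inhibitor probe (1 uM) for 1 h at RT. Protein: N-Avi-tagged human Cbl-b 36-427 on streptavidin-terbium, 20 mM HEPES pH 7.5 buffer.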

[2] = tested on: Human primary T cells; experiment: T cell activation: secreted IL-2; assay type: cell-based; settings: 48 hours, fold over background normalized to Compound 141A; for IL-2 1 nM: 1 nM compound; for IL-2 10 nM: 10 nM compound; for IL-2 100 nM: 100 nM compound
Procedure, shortened: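 IL-2 values are fold over anti-CD3/CD28 background, normalized to a reference compound and sorted into ranges. They come from supernatants of human pan-T cells captured on anti-CD3-coated plates and exposed 48 h, 37° C., to duplicate compound dilutions, measured with cytometric beads.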

[3] = tested on: Human primary T cells; experiment: T cell activation: secreted IFN-y; assay type: cell-based; settings: 48 hours, fold over background normalized to Compound 141A; for IFN-y 1 nM: 1 nM compound; for IFN-y 10 nM: 10 nM compound; for IFN-y 100 nM: 100 nM compound
Procedure, shortened: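 Values are binned ranges (A–D) of fold increase over anti-CD3/CD28 background, normalized to a reference compound, for IFN-γ in supernatants measured by bead array. Pan-T cells from donor PBMC or LeukoPaks were stimulated on anti-CD3-coated wells (10 μg/mL coating) in serum-free medium with compound for 48 h at 37 °C.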

[4] = tested on: Human primary T cells; experiment: T cell activation: CD69 surface expression by flow cytometry; assay type: cell-based; settings: fold over anti-CD3 stimulated background normalized to Compound 141A; for CD69 10 nM: 10 nM compound; for CD69 100 nM: 100 nM compound
Procedure, shortened: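 Read-out is flow-cytometric CD69 surface staining, expressed as fold increase over anti-CD3-stimulated background and normalized to Compound 141A. Human pan T cells from PBMC or LeukoPaks were plated on OKT3-coated wells in serum-free XVivo-15. Compound dilutions were added for 48 h at 37° C, 5% CO2.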

Sequence of Cbl-b (36-427 aa truncated form, N-terminus Avi-tag) (Q13191 36-427): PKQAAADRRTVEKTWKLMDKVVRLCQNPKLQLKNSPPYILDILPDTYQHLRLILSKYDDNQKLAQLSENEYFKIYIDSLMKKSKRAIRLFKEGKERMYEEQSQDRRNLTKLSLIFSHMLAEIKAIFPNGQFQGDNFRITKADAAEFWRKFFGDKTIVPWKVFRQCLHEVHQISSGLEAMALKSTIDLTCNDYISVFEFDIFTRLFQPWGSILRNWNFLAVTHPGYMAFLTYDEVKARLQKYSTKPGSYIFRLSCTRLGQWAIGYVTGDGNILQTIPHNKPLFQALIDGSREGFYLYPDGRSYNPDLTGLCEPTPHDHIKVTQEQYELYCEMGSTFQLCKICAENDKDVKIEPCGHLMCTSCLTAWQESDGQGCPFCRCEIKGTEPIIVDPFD

| SMILES | IC50 [1] [nM] | IL-2 1 nM [2] | IL-2 10 nM [2] | IL-2 100 nM [2] | IFN-y 1 nM [3] | IFN-y 10 nM [3] | IFN-y 100 nM [3] | CD69 10 nM [4] | CD69 100 nM [4] |
| --- | --- | --- | --- | --- | --- | --- | --- | --- | --- |
| C=CC(=O)N1CCN(c2cc(C3(Cc4nncn4C)COC3)cc(N3Cc4c(cc(CN5CCC[C@H](C)C5)cc4C(F)(F)F)C3=O)n2)CC1 [Compound 121, (S)-2-(6-(4-acryloylpiperazin-1-yl)-4-(3-((4-methyl-4H-1,2,4-triazol-3-yl)methyl)oxetan-3-yl)pyridin-2-yl)-6-((3-methylpiperidin-1-yl)methyl)-4-(trifluoromethyl)isoindolin-1-one] | 20 to 100 | C (values between 0.10 and 0.30: range “C”) | C (values between 0.10 and 0.30: range “C”) | B (values between 0.31 and 0.79: range “B”) | C (values between 0.10 and 0.30: range “C”) | C (values between 0.10 and 0.30: range “C”) | B (values between 0.31 and 1.00: range “B;”) | C (values between 0.30 and 0.60: range “C”) | A (values between 0.81 and 1.10: range “A”) |
| C[C@H]1CCCN(Cc2cc3c(c(C(F)(F)F)c2)CN(c2cc(C4(Cc5nncn5C)COC4)cc(OCCCC#N)n2)C3=O)C1.O=C(O)C(F)(F)F [Compound 122, 4-[(4-{3-[(4-methyl-1,2,4-triazol-3-yl)methyl]oxetan-3-yl}-6-(6-{[(3S)-3-methylpiperidin-1-yl]methyl}-1-oxo-4-(trifluoromethyl)-3H-isoindol-2-yl)pyridin-2-yl)oxy]butanenitrile; trifluoroacetic acid] | 1 to 5 | C (values between 0.10 and 0.30: range “C”) | B (values between 0.31 and 0.79: range “B”) | B (values between 0.31 and 0.79: range “B”) | C (values between 0.10 and 0.30: range “C”) | B (values between 0.31 and 1.00: range “B;”) | B (values between 0.31 and 1.00: range “B;”) | B (values between 0.61 and 0.80: range “B;”) | A (values between 0.81 and 1.10: range “A”) |
| CC(C)C(C#N)Oc1cc(C2(Cc3nncn3C)COC2)cc(N2Cc3c(cc(CN4CCC[C@H](C)C4)cc3C(F)(F)F)C2=O)n1.O=CO (stereo partly drawn) [Compound 123, 3-methyl-2-[(4-{3-[(4-methyl-1,2,4-triazol-3-yl)methyl]oxetan-3-yl}-6-(6-{[(3S)-3-methylpiperidin-1-yl]methyl}-1-oxo-4-(trifluoromethyl)-3H-isoindol-2-yl)pyridin-2-yl)oxy]butanenitrile; formic acid] | 1 to 5 | C (values between 0.10 and 0.30: range “C”) | C (values between 0.10 and 0.30: range “C”) | B (values between 0.31 and 0.79: range “B”) | C (values between 0.10 and 0.30: range “C”) | C (values between 0.10 and 0.30: range “C”) | B (values between 0.31 and 1.00: range “B;”) | C (values between 0.30 and 0.60: range “C”) | B (values between 0.61 and 0.80: range “B;”) |
| C[C@H]1CCCN(Cc2cc3c(c(C(F)(F)F)c2)CN(c2cc(C4(Cc5nncn5C)COC4)cc(SCCC(=O)O)n2)C3=O)C1 [Compound 124, 3-[(4-{3-[(4-methyl-1,2,4-triazol-3-yl)methyl]oxetan-3-yl}-6-(6-{[(3S)-3-methylpiperidin-1-yl]methyl}-1-oxo-4-(trifluoromethyl)-3H-isoindol-2-yl)pyridin-2-yl)sulfanyl]propanoic acid] | 100 to 1000 | C (values between 0.10 and 0.30: range “C”) | C (values between 0.10 and 0.30: range “C”) | C (values between 0.10 and 0.30: range “C”) | C (values between 0.10 and 0.30: range “C”) | C (values between 0.10 and 0.30: range “C”) | C (values between 0.10 and 0.30: range “C”) | C (values between 0.30 and 0.60: range “C”) | C (values between 0.30 and 0.60: range “C”) |
| C=CC(=O)NCCNc1cc(C2(Cc3nncn3C)COC2)cc(N2Cc3c(cc(CN4CCC[C@H](C)C4)cc3C(F)(F)F)C2=O)n1 [Compound 125, (S)-N-(2-((4-(3-((4-methyl-4H-1,2,4-triazol-3-yl)methyl)oxetan-3-yl)-6-(6-((3-methylpiperidin-1-yl)methyl)-1-oxo-4-(trifluoromethyl)isoindolin-2-yl)pyridin-2-yl)amino)ethyl)acrylamide] | 5.01 to 20 | C (values between 0.10 and 0.30: range “C”) | C (values between 0.10 and 0.30: range “C”) | B (values between 0.31 and 0.79: range “B”) | C (values between 0.10 and 0.30: range “C”) | C (values between 0.10 and 0.30: range “C”) | B (values between 0.31 and 1.00: range “B;”) | C (values between 0.30 and 0.60: range “C”) | A (values between 0.81 and 1.10: range “A”) |
| CCSc1cc(C2(Cc3nncn3C)COC2)cc(N2Cc3c(NC)cc(CN4CCC[C@H](C)C4)cc3C2=O)n1.O=CO [Compound 130, 2-[6-(ethylsulfanyl)-4-{3-[(4-methyl-1,2,4-triazol-3-yl)methyl]oxetan-3-yl}pyridin-2-yl]-4-(methylamino)-6-{[(3S)-3-methylpiperidin-1-yl]methyl}-3H-isoindol-1-one; formic acid] | 5.01 to 20 | C (values between 0.10 and 0.30: range “C”) | C (values between 0.10 and 0.30: range “C”) | B (values between 0.31 and 0.79: range “B”) | C (values between 0.10 and 0.30: range “C”) | C (values between 0.10 and 0.30: range “C”) | B (values between 0.31 and 1.00: range “B;”) | C (values between 0.30 and 0.60: range “C”) | B (values between 0.61 and 0.80: range “B;”) |
| C#CCCS(=O)(=O)N1CCN(c2cc(C3(Cc4nncn4C)COC3)cc(N3Cc4c(cc(CN5CCC[C@H](C)C5)cc4C(F)(F)F)C3=O)n2)CC1 [Compound 134, (S)-2-(6-(4-(but-3-yn-1-ylsulfonyl)piperazin-1-yl)-4-(3-((4-methyl-4H-1,2,4-triazol-3-yl)methyl)oxetan-3-yl)pyridin-2-yl)-6-((3-methylpiperidin-1-yl)methyl)-4-(trifluoromethyl)isoindolin-1-one] | 5.01 to 20 | C (values between 0.10 and 0.30: range “C”) | B (values between 0.31 and 0.79: range “B”) | B (values between 0.31 and 0.79: range “B”) | B (values between 0.31 and 1.00: range “B;”) | B (values between 0.31 and 1.00: range “B;”) | B (values between 0.31 and 1.00: range “B;”) | B (values between 0.61 and 0.80: range “B;”) | A (values between 0.81 and 1.10: range “A”) |
| CCC(CC#N)Nc1cc(C2(Cc3nncn3C)COC2)cc(N2Cc3c(cc(CN4CCC[C@H](C)C4)cc3C(F)(F)F)C2=O)n1.O=C(O)C(F)(F)F (stereo partly drawn) [Compound 135, 3-((4-(3-((4-methyl-4H-1,2,4-triazol-3-yl)methyl)oxetan-3-yl)-6-(6-(((S)-3-methylpiperidin-1-yl)methyl)-1-oxo-4-(trifluoromethyl)isoindolin-2-yl)pyridin-2-yl)amino)pentanenitrile; trifluoroacetic acid] | 5.01 to 20 | C (values between 0.10 and 0.30: range “C”) | B (values between 0.31 and 0.79: range “B”) | B (values between 0.31 and 0.79: range “B”) | C (values between 0.10 and 0.30: range “C”) | B (values between 0.31 and 1.00: range “B;”) | B (values between 0.31 and 1.00: range “B;”) | B (values between 0.61 and 0.80: range “B;”) | A (values between 0.81 and 1.10: range “A”) |
